Columns and labels:
[1] = system: TuJ1-immunoreactive cells in the subventricular zone and striatum; experiment: TuJ1 immunostaining of immature neurons after embolic MCA occlusion; format: in vivo, rat
Description: Male Wistar rats weighing 320 to 380 g were used in the present study. The middle cerebral artery (MCA) was occluded by placement of an embolus at the origin of the MCA. […] Ischemic rats (n=9) were treated with the same volume of tap water as a control group. Functional tests were performed and body weight was measured before ischemia and at 4, 7, 14, 21, and 28 days after onset of MCA occlusion. All rats were killed 28 days after MCA occlusion. […] These rats were killed 1 hour after the last treatment for measurements of brain levels of cGMP. […] Reverse transcription (RT)-polymerase chain reaction (PCR) was performed to detect PDE5 in brain tissue. […] Reaction product was detected with the use of 3′3′-diaminobenzidine-tetrahydrochloride (DAB; Sigma), For ′III-tubulin (TuJ1) immunostaining, which identifies immature neurons, 12 coronal sections were incubated with the antibody against TuJ1 (1:1000) at 4° C. overnight and were then incubated with a biotinylated horse anti-mouse immunoglobulin antibody at room temperature for 30 minutes. […] BrdU-immunoreactive nuclei were counted on a computer monitor to improve visualization and in 1 focal plane to avoid oversampling. All BrdU-immunoreactive-positive nuclei were counted in both the ipsilateral and contralateral walls of the lateral ventricle of the subventricular zone and in the dentate gyrus. […]

[2] = system: rats subjected to embolic middle cerebral artery occlusion; experiment: Infarct volume 28 days after embolic MCA occlusion; format: in vivo, rat; settings: 28 days after ischemia
Description: Male Wistar rats weighing 320 to 380 g were used in the present study. The middle cerebral artery (MCA) was occluded by placement of an embolus at the origin of the MCA.
Ischemic rats (n=9) were treated with the same volume of tap water as a control group. Functional tests were performed and body weight was measured before ischemia and at 4, 7, 14, 21, and 28 days after onset of MCA occlusion. All rats were killed 28 days after MCA occlusion. […] These rats were killed 1 hour after the last treatment for measurements of brain levels of cGMP. […] Experiments were also performed to examine brain PDE5, nonischemic rats and ischemic rats were killed at 2, 4, 24, 48, and 168 hours after the onset of ischemia (n=3 for each time point). Reverse transcription (RT)-polymerase chain reaction (PCR) was performed to detect PDE5 in brain tissue.
Measurement of infarct volume was measured on 7 hematoxylin and eosin-stained coronal sections with the use of a Global Laboratory Image analysis program (Data Translation). Briefly, the area of both hemispheres and the infarct area (mm 2) were calculated by tracing the area on the computer screen. Infarct volume (mm 3) was determined by multiplying the appropriate area by the section interval thickness. The infarct volume is presented as the percent-age of infarct volume of the contralateral hemisphere (indirect volume calculation).

[3] = cited from earlier work
nonischemic rats = experiment: Localized CBF by laser-Doppler flowmetry; format: in vivo, rat; settings: sildenafil 2 mg/kg
Description: Ischemic rats (n=9) were treated with the same volume of tap water as a control group. Functional tests were performed and body weight was measured before ischemia and at 4, 7, 14, 21, and 28 days after onset of MCA occlusion. All rats were killed 28 days after MCA occlusion. […] These rats were killed 1 hour after the last treatment for measurements of brain levels of cGMP. […] Reverse transcription (RT)-polymerase chain reaction (PCR) was performed to detect PDE5 in brain tissue. Relative erythrocyte flow velocity was measured by laser-Doppler flowmetry (PeriFlux PF4 flowmeter; Perimed AB) in the tissue under the laser-Doppler flowmetry probe. 13 A burr hole 1.5 mm in diameter was drawn on the skull 2 mm posterior to the bregma and 6 mm lateral to midline. 13 The dura was left intact. After the application of mineral oil onto the burr hole, the probe was laced 0.5 mm above the dural surface. […] This measurement reflects relatively localized CBF. 14 Values of flow velocities are presented as a percentage of the contralateral hemispheric values.

[4] = Animal body weight loss after embolic MCA occlusion; format: in vivo, rat
Description: Male Wistar rats weighing 320 to 380 g were used in the present study. The middle cerebral artery (MCA) was occluded by placement of an embolus at the origin of the MCA. […] Ischemic rats (n=9) were treated with the same volume of tap water as a control group. Functional tests were performed and body weight was measured before ischemia and at 4, 7, 14, 21, and 28 days after onset of MCA occlusion. All rats were killed 28 days after MCA occlusion. […] These rats were killed 1 hour after the last treatment for measurements of brain levels of cGMP. […] Reverse transcription (RT)-polymerase chain reaction (PCR) was performed to detect PDE5 in brain tissue. Animals were weighed before and at 4, 7, 14, 21, and 28 days after embolic ischemia. Body weight loss is presented as a percentage of […] body weight.

For CCCc1nn(C)c2c(=O)[nH]c(-c3cc(S(=O)(=O)N4CCN(C)CC4)ccc3OCC)nc12 [Sildenafil], the “numbers of TuJ1-immunoreactive cells in the ipsilateral and contralateral subventricular zones” value ([1]; sildenafil 2 or 5 mg/kg, 28 days after ischemia, vs control rats) was “significantly (P=0.05) increased numbers of TuJ1-immunoreactive cells”, the “number of TuJ1 cells in the ipsilateral striatum” value ([1]; sildenafil, vs contralateral hemisphere and ipsilateral striatum of control rats) was “significantly increased the number of TuJ1 cells” and the “Infarct Volume, %” value ([2]; Sildenafil 2 mg/kg, 2 h, percentage of lesion relative to the contralateral hemisphere) was 35.2 ± 3.3%. The “Infarct Volume, %” value ([2]; Sildenafil 2 mg/kg, 24 h) was 35.5 ± 0.9%, the “Infarct Volume, %” value ([2]; Sildenafil 5 mg/kg, 2 h) was 37.7 ± 4.3% and the half-life in rats [3] was 24 min. The “duration of significantly increased localized CBF after administration” value (nonischemic rats) was 70 min, the “localized CBF levels” value (nonischemic rats; vs control rats) was “significantly increased localized CBF levels” and the “% of Preischemic Body Weight” value ([4]; Sildenafil 2 mg/kg, 2 h, 4 d) was 81.8 ± 2.3%. For the same molecule, the “% of Preischemic Body Weight” value ([4]; Sildenafil 2 mg/kg, 2 h, 7 d) was 86.6 ± 2.5 %, the “% of Preischemic Body Weight” value ([4]; Sildenafil 2 mg/kg, 2 h, 14 d) was 89.6 ± 4.7 % and the “% of Preischemic Body Weight” value ([4]; Sildenafil 2 mg/kg, 2 h, 21 d) was 98.2 ± 3.7 %. For the same molecule, the “% of Preischemic Body Weight” value ([4]; Sildenafil 2 mg/kg, 2 h, 28 d) was 105.2 ± 3.0 %, the “% of Preischemic Body Weight” value ([4]; Sildenafil 2 mg/kg, 2 h group, Before Ischemia (baseline)) was 100% and the “% of Preischemic Body Weight” value ([4]; Sildenafil 2 mg/kg, 24 h, 4 d) was 86.9 ± 0.2%. The “% of Preischemic Body Weight” value ([4]; Sildenafil 2 mg/kg, 24 h, 7 d) was 84.9 ± 1.8 %, the “% of Preischemic Body Weight” value ([4]; Sildenafil 2 mg/kg, 24 h, 14 d) was 89.2 ± 2.6 % and the “% of Preischemic Body Weight” value ([4]; Sildenafil 2 mg/kg, 24 h, 21 d) was 99.5 ± 2.0 %. The “% of Preischemic Body Weight” value ([4]; Sildenafil 2 mg/kg, 24 h, 28 d) was 107.2 ± 2.5 %, the “% of Preischemic Body Weight” value ([4]; Sildenafil 2 mg/kg, 24 h group, Before Ischemia (baseline)) was 100% and the “% of Preischemic Body Weight” value ([4]; Sildenafil 5 mg/kg, 2 h, 4 d) was 84.6 ± 1.8%. For the same molecule, the “% of Preischemic Body Weight” value ([4]; Sildenafil 5 mg/kg, 2 h, 7 d) was 81.8 ± 2.5 %, the “% of Preischemic Body Weight” value ([4]; Sildenafil 5 mg/kg, 2 h, 14 d) was 84.7 ± 3.9% and the “% of Preischemic Body Weight” value ([4]; Sildenafil 5 mg/kg, 2 h, 21 d) was 95.2 ± 3.5 %. For the same molecule, the “% of Preischemic Body Weight” value ([4]; Sildenafil 5 mg/kg, 2 h, 28 d) was 101.3 ± 4.3% and the “% of Preischemic Body Weight” value ([4]; Sildenafil 5 mg/kg, 2 h group, Before Ischemia (baseline)) was 100%.

From patent US20120009152A1, “NITRIC OXIDE DONORS FOR TREATMENT OF DISEASE AND INJURY” (priority 2002, published 2012)
